PMC12655351, “Synthesis and Anticancer Activity Evaluation of New 5-((5-Nitrofuran-2-yl)allylidene)-2-thioxo-4-thiazolidinones” (Pharmaceuticals, 2025)

Key:
[1] = tested on: LOX IMVI; assay: cells; settings: Homo sapiens, 48 h; for CC50: read-out: LC50, LOX IMVI, 48 h
[2] = tested on: UACC-257; settings: UACC-257, 48 h
[3] = tested on: HCC-2998; settings: for TGI: HCC-2998, 48 h; for growth GP: HCC-2998, 10 μM, 48 h
[4] = tested on: Leukemia; assay: cells; settings: Homo sapiens; for GI50: read-out: MG_MID GI50; for CC50: read-out: MG_MID LC50
[5] = tested on: MALME-3M; assay: NCI-60 SRB screen; settings: 48 h; for GI50 / CC50: Homo sapiens, Malme-3M; for CC50: read-out: LC50, MALME-3M, 48 h; for TGI: MALME-3M
[6] = tested on: PC-3; assay: cells; settings: Homo sapiens, PC-3, 48 h
[7] = tested on: M14; assay: NCI-60 SRB screen; settings: M14, 48 h; for GI50 / CC50: Homo sapiens; for CC50: read-out: LC50, M14, 48 h
[8] = tested on: Renal Cancer; settings: Renal Cancer subpanel
[9] = tested on: SK-MEL-28; assay: cells; settings: Homo sapiens, SK-MEL-28, 48 h; for CC50: read-out: LC50, SK-MEL-28, 48 h
[10] = tested on: Ovarian cancer; assay: cells; settings: Homo sapiens; for GI50: read-out: MG_MID GI50; for CC50: read-out: MG_MID LC50
[11] = tested on: SW-620; assay: NCI-60 SRB screen; settings: SW-620, 48 h; for GI50: Homo sapiens
[12] = tested on: CCRF-CEM; assay: cells; settings: Homo sapiens, 48 h
[13] = tested on: RPMI-8226; settings: RPMI-8226, 48 h
[14] = tested on: BT-549; assay: cells; settings: Homo sapiens, BT-549, 48 h; for CC50: read-out: LC50, BT-549, 48 h
[15] = tested on: K562; assay: MTT assay; type: cell-based; settings: Homo sapiens; K562, 24 h of treatment
How it was run: (§1)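 Cells exposed to compounds at 0.625–40 μM (seven concentrations, triplicate) for 24 h. MTT (5 mg/mL) then added for 2 h at 37 °C, cells lysed in acidic SDS/DMF buffer pH 4.7, absorbance read at 570 nm.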

[16] = tested on: HCC-1954; assay: MTT assay; type: cell-based; settings: Homo sapiens, HCC1954; HCC-1954, 24 h of treatment
How it was run: as §1

[17] = tested on: AGS; assay: MTT assay; type: cell-based; settings: Homo sapiens, 24 h of treatment
How it was run: as §1

[18] = tested on: ACHN; assay: NCI-60 SRB screen; settings: 48 h; for GI50 / CC50: Homo sapiens; for CC50: read-out: LC50, ACHN, 48 h; for growth GP: 10 μM
[19] = tested on: SK-MEL-5; settings: for TGI: SK-MEL-5, 48 h; for growth GP: SK-MEL-5, 10 μM, 48 h
[20] = tested on: SNB-19; assay: NCI-60 SRB screen; settings: for GI50 / CC50: Homo sapiens; for GI50 / CC50 / TGI: SNB-19, 48 h; for CC50: read-out: LC50, SNB-19, 48 h
[21] = tested on: Breast cancer; assay: cells; settings: Homo sapiens; for GI50: read-out: MG_MID GI50; for CC50: read-out: MG_MID LC50
[22] = tested on: SN12C; settings: SN12C, 48 h; for growth GP: 10 μM
[23] = tested on: SF-268; assay: cells; settings: Homo sapiens, SF-268, 48 h; for CC50: read-out: LC50, SF-268, 48 h
[24] = tested on: OVCAR-3; assay: cells; settings: Homo sapiens, OVCAR-3, 48 h
[25] = tested on: COLO 205; settings: COLO 205, 48 h
[26] = tested on: LOX IMVI; settings: LOX IMVI, 48 h
[27] = tested on: SNB-75; assay: NCI-60 SRB screen; settings: SNB-75, 48 h; for GI50 / CC50: Homo sapiens; for CC50: read-out: LC50, SNB-75, 48 h
[28] = tested on: RXF 393; assay: NCI-60 SRB screen; settings: RXF 393, 48 h; for GI50: Homo sapiens
[29] = tested on: UACC-62; assay: NCI-60 SRB screen; settings: for GI50 / CC50: Homo sapiens; for GI50 / CC50 / TGI: UACC-62, 48 h; for CC50: read-out: LC50, UACC-62, 48 h

O=C(O)C(c1ccccc1)N1C(=O)/C(=C/C=C/c2ccc([N+](=O)[O-])o2)SC1=S (stereo not drawn) [9b, 2-((Z)-5-((E)-3-(5-Nitrofuran-2-yl)allylidene)-4-oxo-2-thioxothiazolidin-3-yl)-2-phenylacetic acid]
GI50 [1]: 10.8 µM | CC50 [1]: 62.3 µM | TGI [2]: 27.2 µM | TGI [3]: 29.9 µM | GI50 [4]: 6.64 µM | CC50 [4]: > 100 µM | GI50 [5]: 5.4 µM | CC50 [5]: 48.8 µM | TGI [5]: 18.7 µM | GI50 [6]: 13.5 µM | GI50 [7]: 12.6 µM | CC50 [7]: 58 µM | TGI [7]: 27.0 µM | MG_MID TGI [8]: 22.1 µM | GI50 [9]: 10.7 µM | CC50 [9]: 51.1 µM | GI50 [10]: 13 µM | CC50 [10]: 60.3 µM | GI50 [11]: 2.94 µM | TGI [11]: 9.66 µM | GI50 [12]: 3.12 µM | TGI [13]: 12.7 µM | GI50 [14]: 2.46 µM | CC50 [14]: 35.7 µM | IC50 [15]: 37.6 µM | IC50 [16]: 20.6 µM | IC50 [17]: 12.9 µM | TGI [18]: 21.4 µM | GI50 [18]: 9.25 µM | CC50 [18]: 47.2 µM | TGI [19]: 13.7 µM | GI50 [20]: 13.5 µM | CC50 [20]: 51.4 µM | TGI [20]: 26.3 µM | GI50 [21]: 5.89 µM | CC50 [21]: 49.4 µM | TGI [22]: 18.3 µM | GI50 [23]: 10.8 µM | CC50 [23]: 52.2 µM | GI50 [24]: 9.26 µM | TGI [25]: 22.2 µM | TGI [26]: 25.9 µM | GI50 [27]: 2.11 µM | CC50 [27]: 27.9 µM | TGI [27]: 7.39 µM | GI50 [28]: 4.01 µM | TGI [28]: 14.6 µM | GI50 [29]: 2.69 µM | CC50 [29]: 35.3 µM | TGI [29]: 11.1 µM

CC(C)C(C(=O)O)N1C(=O)/C(=C/C=C/c2ccc([N+](=O)[O-])o2)SC1=S (stereo not drawn) [5b, 3-Methyl-2-((Z)-5-((E)-3-(5-nitrofuran-2-yl)allylidene)-4-oxo-2-thioxothiazolidin-3-yl)butanoic acid]
GI50 [1]: 1.16 µM | CC50 [1]: 5.33 µM | TGI [2]: 3.27 µM | growth GP [3]: -95.90% | TGI [3]: 3.22 µM | GI50 [4]: 0.84 µM | CC50 [4]: > 100 µM | GI50 [5]: 1.32 µM | CC50 [5]: 5.64 µM | TGI [5]: 2.73 µM | GI50 [6]: 1.8 µM | GI50 [7]: 1.6 µM | CC50 [7]: 6.44 µM | TGI [7]: 3.21 µM | MG_MID TGI [8]: 3.27 µM | GI50 [9]: 1.46 µM | CC50 [9]: 5.48 µM | GI50 [10]: 1.92 µM | CC50 [10]: 17.4 µM | GI50 [11]: 0.59 µM | TGI [11]: 2.55 µM | GI50 [12]: 0.36 µM | TGI [13]: 1.49 µM | GI50 [14]: 0.75 µM | CC50 [14]: 5.13 µM | IC50 [15]: 16.1 µM | IC50 [16]: 6.42 µM | IC50 [17]: 2.65 µM | growth GP [18]: -99.54% | TGI [18]: 2.64 µM | GI50 [18]: 1.35 µM | CC50 [18]: 5.19 µM | growth GP [19]: -99.69% | TGI [19]: 2.21 µM | GI50 [20]: 1.64 µM | CC50 [20]: 5.53 µM | growth GP ([20]; SNB-19, 10 μM, 48 h): -97.77% | TGI [20]: 3.01 µM | GI50 [21]: 1.22 µM | CC50 [21]: 24.6 µM | TGI [22]: 2.15 µM | GI50 [23]: 1.61 µM | CC50 [23]: 7.92 µM | GI50 [24]: 1.34 µM | TGI [25]: 2.79 µM | TGI [26]: 2.49 µM | GI50 [27]: 0.68 µM | CC50 [27]: 4.89 µM | TGI [27]: 1.98 µM | GI50 [28]: 1.74 µM | TGI [28]: 3.27 µM | GI50 [29]: 0.78 µM | CC50 [29]: 4.9 µM | TGI [29]: 2.16 µM

O=C(O)CCN1C(=O)/C(=C/C=C/c2ccc([N+](=O)[O-])o2)SC1=S [12b, 3-((Z)-5-((E)-3-(5-Nitrofuran-2-yl)allylidene)-4-oxo-2-thioxothiazolidin-3-yl)propanoic acid]
GI50 [1]: 0.58 µM | CC50 [1]: 4.34 µM | TGI [2]: 4.08 µM | growth GP [3]: -95.81% | TGI [3]: 9.26 µM | GI50 [4]: 0.66 µM | CC50 [4]: > 100 µM | GI50 [5]: 0.5 µM | CC50 [5]: 4.25 µM | TGI [5]: 1.66 µM | GI50 [6]: 2.48 µM | GI50 [7]: 1.48 µM | CC50 [7]: 6.31 µM | TGI [7]: 3.05 µM | MG_MID TGI [8]: 6.01 µM | GI50 [9]: 1.57 µM | CC50 [9]: 5.93 µM | GI50 [10]: 2.05 µM | CC50 [10]: 17.7 µM | TGI [11]: 19.8 µM | GI50 [12]: 0.25 µM | TGI [13]: 4.48 µM | GI50 [14]: 1.35 µM | CC50 [14]: 6.13 µM | IC50 [15]: 7.15 µM | IC50 [16]: 4.86 µM | IC50 [17]: 3.65 µM | growth GP [18]: -99.00% | TGI [18]: 2.97 µM | GI50 [18]: 1.61 µM | CC50 [18]: 5.46 µM | growth GP [19]: -97.62% | TGI [19]: 2.24 µM | GI50 [20]: 2.3 µM | CC50 [20]: 22.9 µM | TGI [20]: 6.37 µM | GI50 [21]: 1.09 µM | CC50 [21]: 37.4 µM | growth GP [22]: -95.84% | TGI [22]: 2.32 µM | GI50 [23]: 1.44 µM | CC50 [23]: 7.02 µM | GI50 [24]: 1.36 µM | TGI [25]: 12.4 µM | growth GP ([26]; 10 μM): -95.70% | TGI [26]: 1.86 µM | GI50 [27]: 1.1 µM | CC50 [27]: 14.1 µM | TGI [27]: 3.67 µM | GI50 [28]: 1.58 µM | TGI [28]: 3.02 µM | GI50 [29]: 0.65 µM | CC50 [29]: 4.16 µM | growth GP ([29]; UACC-62, 10 μM, 48 h): -97.43% | TGI [29]: 2.00 µM

CCCC(C(=O)O)N1C(=O)/C(=C/C=C/c2ccc([N+](=O)[O-])o2)SC1=S (stereo not drawn) [4b, 2-((Z)-5-((E)-3-(5-Nitrofuran-2-yl)allylidene)-4-oxo-2-thioxothiazolidin-3-yl)pentanoic acid]
GI50 [1]: 1.59 µM | CC50 [1]: 6.11 µM | TGI [2]: 4.82 µM | TGI [3]: 3.33 µM | GI50 [4]: 2.36 µM | CC50 [4]: > 100 µM | GI50 [5]: 1.8 µM | CC50 [5]: 6.4 µM | TGI [5]: 3.40 µM | GI50 [6]: 2.87 µM | GI50 [7]: 1.83 µM | CC50 [7]: 7.74 µM | TGI [7]: 3.77 µM | MG_MID TGI [8]: 4.25 µM | GI50 [9]: 1.76 µM | CC50 [9]: 6.98 µM | GI50 [10]: 3.12 µM | CC50 [10]: 23 µM | GI50 [11]: 1.55 µM | TGI [11]: 3.08 µM | GI50 [12]: 2.27 µM | TGI [13]: 5.11 µM | GI50 [14]: 1.67 µM | CC50 [14]: 6.77 µM | IC50 [15]: 16.1 µM | IC50 [16]: 7.07 µM | IC50 [17]: 6.54 µM | TGI [18]: 3.44 µM | GI50 [18]: 1.72 µM | CC50 [18]: 6.87 µM | TGI [19]: 2.79 µM | GI50 [20]: 2.01 µM | CC50 [20]: 8.45 µM | TGI [20]: 4.12 µM | GI50 [21]: 1.85 µM | CC50 [21]: 38.3 µM | growth GP [22]: -95.04% | TGI [22]: 4.05 µM | GI50 [23]: 2.04 µM | CC50 [23]: 9.72 µM | GI50 [24]: 2.18 µM | TGI [25]: 3.60 µM | TGI [26]: 3.12 µM | GI50 [27]: 1.53 µM | CC50 [27]: 6.99 µM | TGI [27]: 3.27 µM | GI50 [28]: 1.89 µM | TGI [28]: 3.40 µM | GI50 [29]: 1.5 µM | CC50 [29]: 5.9 µM | TGI [29]: 2.98 µM
